This is an account of results in publication PMC3574584 (Journal of medicinal chemistry, 2013).

“Also recorded” adds a separate entry of the source.

In the assay the test system is Raw264.7 cells expressing mPTPB. Kind of assay: Akt phosphorylation by Western blotting. As to conditions: mPTPB expressing Raw264.7 macrophages, IFN-γ 200 U/ml; 6c at 240 nM. Type of assay: cell-based, mouse.

With `O=C(O)c1cc2c(C#Cc3cccc(C(F)(F)F)c3)c(-c3ccccc3)oc2cc1O` [Compound 4g, 6-hydroxy-2-phenyl-3-((3-(trifluoromethyl)phenyl)ethynyl)benzofuran-5-carboxylic acid], the “Akt activity (phospho-Akt)” value was “normalized; also recorded: blocks”.

With `O=C(O)c1cc2c(CCc3ccc(OC(F)(F)F)cc3)c(-c3ccccc3)oc2cc1O` [Compound 6c, 6-hydroxy-2-phenyl-3-(4-(trifluoromethoxy)phenethyl)benzofuran-5-carboxylic acid], the “Akt activity (phospho-Akt)” value is “unable to reverse”.
